What was measured:
Type in all cases: in vivo
[1] = test system: oilseed rape (GA-tolerant); experiment: Greenhouse trial, crop plant compatibility in oilseed rape (GA-tolerant); conditions: 2-4 oilseed rape-leaf stage
Procedure: The trials were carried out under greenhouse conditions (test pots, diameter 8 cm, spray application using 300 l of water/hectare, 2 repetitions, 6 to 8 plants per pot).
Scoring was by visual comparison of the treated with the untreated controls (0-100% scale, 14-19 days after the application) (see details in the respective tables).

[2] = test system: Viola arvensis; experiment: Greenhouse trial, post-emergence herbicidal efficacy against Viola arvensis; conditions: scoring 14 days after application, g of ai/ha: A1.1 100, B1.1 5, C1 25, C2 100, C3 12.5, C4 2.5, C5 50, C6 125, C7 250, C8 250, C9 5, combinations at the same rates
Procedure: (§1) The trials were carried out under greenhouse conditions (test pots, diameter 8 cm, spray application using 300 l of water/hectare, 2 repetitions, 6 to 8 plants per pot). Application was by post-emergence treatment; the species of the harmful plants and their stage of growth at the time of treatment are, indicated in the individual results tables. The application rates of the herbicidally active compounds used on their own or in combinations are likewise listed in the individual results tables.
Scoring was by visual comparison of the treated with the untreated controls (0-100% scale, 14-19 days after the application) (see details in the respective tables). The results (means for all plants per pot and means of two repetitions per pot and treatment) are lised in Tables 4 to 6 below. […]

[3] = test system: Lolium multiflorum; experiment: Greenhouse trial, post-emergence herbicidal efficacy against Lolium multiflorum; conditions: scoring 14 days after application, g of ai/ha: A1.1 100, B1.1 5, C10 5, C11 15, combinations at the same rates
Procedure: as §1
(§2) Scoring was by visual comparison of the treated with the untreated controls (0-100% scale, 14-19 days after the application) (see details in the respective tables). The results (means for all plants per pot and means of two repetitions per pot and treatment) are lised in Tables 4 to 6 below.
(§3) 4.2 Abbreviations Used in Tables 4 to 6 • application rate g/ai=application rate in grams of active compound per hectare • ai=active ingredient (of an active compound content of 100%) • GA=glufosinate-ammonium • GA-tolerant=oilseed rape which is tolerant to GA (GMO) • E^C=expected value according to Colby, (E^C=A+B−A×B/100)=for ternary combinations: (A+B)+C−(A+B)×C/100 • E^A=expected value according to the addition method (E^A=A+B) • A=difference (%) between observed value−%−vs. expected value (%) (observed value minus expected value) • examination:—observed values for (A), (B) and (A)+(B) in % • scoring:—observed value (%) greater >than E^C/E^A: ->synergism (+Δ) • observed value (%) equal to =E^c/E^A->additive effect (+−0Δ) • observed value (%) smaller <than E^A/E^c->antagonism (−Δ)

[4] = test system: Matricaria chamomilla; experiment: Greenhouse trial, post-emergence herbicidal efficacy against Matricaria chamomilla; conditions: scoring 19 days after application, g of ai/ha: A1.1 100, B1.1 5, C12 50, combinations at the same rates
Procedure: as §1, §2, §3

[5] = Table 4, post-emergence, scoring 14 days after application, g of ai/ha: A1.1 100, B1.1 5, C1 25, C2 100, C3 12.5, C4 2.5, C5 50, C6 125, C7 250, C8 250, C9 5, combinations at the same rates, (75)* = selective only in IMI × GA tolerant crop plants
[6] = Table 5, post-emergence, scoring 14 days after application, g of ai/ha: A1.1 100, B1.1 5, C10 5, C11 15, combinations at the same rates
[7] = Table 6, post-emergence, scoring 19 days after application, g of ai/ha: A1.1 100, B1.1 5, C12 50, combinations at the same rates

SMILES | Damage to crop plants (%) oilseed rape (GA-tolerant) (≦15-20% acceptable) [1, 5] | Herbicidal efficacy % Lolium multiflorum [3] [%] | also measured
CCCN(CCC)c1c([N+](=O)[O-])cc(C(F)(F)F)cc1[N+](=O)[O-] [C8, trifluralin] | 0% | – | –
C[C@@H](Oc1ccc(Oc2ncc(C(F)(F)F)cc2Cl)cc1)C(=O)O [C4, haloxyfop-p] | – | – | Herbicidal efficacy % Viola arvensis [2]: 0%
COCc1cnc(C2=NC(C)(C(C)C)C(=O)N2)c(C(=O)O)c1 (centres unmarked) [C9, imazamox] | (75)* % | – | –
COC(=O)c1nc(-c2ccc(Cl)c(OC)c2F)cc(N)c1Cl [B1.1, methyl 4-amino-3-chloro-6-(4-chloro-2-fluoro-3-methoxyphenyl)pyridine-2-carboxylate] | – | 0 | Herbicidal efficacy % Matricaria chamomilla [4]: 40%
CCCC(=NOCC)C1=C(O)CC(C2CCCSC2)CC1=O (centres unmarked) [C11, cycloxydim] | – | 70 | –
CP(=O)(O)CCC(N)C(=O)O (centres unmarked) [A1.1, glufosinate-ammonium] | 10% | 20 | Damage to crop plants (%) oilseed rape (GA-tolerant) (≦15-20% acceptable) [1, 6]: 10%; Damage to crop plants (%) oilseed rape (GA-tolerant) (≦15-20% acceptable) [1, 7]: 10%; Herbicidal efficacy % Matricaria chamomilla [4]: 95%
CCSC(C)CC1CC(=O)C(/C(CC)=N/OC/C=C/Cl)=C(O)C1 (centres unmarked) [C10, clethodim] | – | 50 | Damage to crop plants (%) oilseed rape (GA-tolerant) (≦15-20% acceptable) [1, 6]: 0%
CCOC(=O)[C@@H](C)Oc1ccc(Oc2nc3ccc(Cl)cc3o2)cc1 [C3, fenoxaprop-P-ethyl] | 15% | – | Herbicidal efficacy % Viola arvensis [2]: 0%
Cc1cccc(C)c1N(Cn1cccn1)C(=O)CCl [C5, metazachlor] | 0% | – | –
CC1(C)CON(Cc2ccccc2Cl)C1=O [C12, Clomazone] | – | – | Damage to crop plants (%) oilseed rape (GA-tolerant) (≦15-20% acceptable) [1, 7]: 15%; Herbicidal efficacy % Matricaria chamomilla [4]: 0%
CCCCCCCCSC(=O)Oc1cc(Cl)nnc1-c1ccccc1 [C7, pyridate] | 0% | – | –
O=C(O)c1nc(Cl)ccc1Cl [C1, clopyralid] | 0% | – | –

Reference: patent US20110287933A1, “Herbicidal composition for tolerant or resistant oilseed rape crops” (BAYER CROPSCIENCE AG, priority 2010, published 2011)
